This is an account of results in patent publication US20070254843A1, “Methods for treating bone associated diseases by the use of methionine aminopeptidase-2 inhibitors” (Praecis Pharmaceuticals Incorporated, priority 2006, published 2007).

Bounds are passed on as bounds.

Assay [1] relates to HUVEC. Conditions: in vitro; cited from earlier work.
The test system of assay [2] is PG-PS-induced arthritis. The experiment in a line: Clinical (histopathological) assessment of PG-PS arthritis, joint histology score. As to conditions: for Total arthritis score / Bone Resorption score / Cartilage erosion score / Cell infiltration score / Pannus formation score: PG-PS arthritis; for Bone Resorption score / Cartilage erosion score / Cell infiltration score / Pannus formation score: score 0-4. In kind it is in vivo, rat. As to the method: Clinical assessment of PG-PS arthritis. The histopathological evaluation was performed on the left and right hind joints of randomly selected animals from each study group by an independent histopathologist without knowledge of specific interventions. After completion of the study, the left and right hind ankles were removed, fixed in 10% buffered formalin, decalcified in 5% formic acid, paraffin-embedded, sectioned, and H&E stained for histological evaluation. A joint histology scoring system which grades the severity of 4 histopathological processes (cell infiltration, pannus formation, cartilage erosion, bone resorption), was used to quantify hind joint involvement in the PG-PS arthritis model (36). Dependent on the assigned score for each parameter (0=normal, 1=minimal, 2=mild, 3=moderate, 4=marked), the maximum total score per ankle is 16, and 32 per animal.
It was investigated whether the protective activity of the MetAP-2 inhibitor in this animal model of arthritis, which is characterized by aggressive synovitis, extensive pannus formation, cartilage degradation and focal bone erosion, was mediated through regression in the severity of all clinical indices tested, or whether this activity was targeting specific pathogenic processes.
A joint histology scoring system which grades the severity of 4 histopathological processes (cell infiltration, pannus formation, cartilage erosion, bone resorption) was used (O'Byrne (1991) Agents and Actions 134:239-241).

The target in assay [3] is T1, MetAP-2 (Rattus norvegicus, UniProt P38062).
T1 construct: wbc from animals of each study group were pooled and cell lysates were prepared as previously described; from tissue; host or cells: white blood cells (wbc) of female Lewis rats, pooled per study group and lysed
T1 sequence (P38062 whole entry): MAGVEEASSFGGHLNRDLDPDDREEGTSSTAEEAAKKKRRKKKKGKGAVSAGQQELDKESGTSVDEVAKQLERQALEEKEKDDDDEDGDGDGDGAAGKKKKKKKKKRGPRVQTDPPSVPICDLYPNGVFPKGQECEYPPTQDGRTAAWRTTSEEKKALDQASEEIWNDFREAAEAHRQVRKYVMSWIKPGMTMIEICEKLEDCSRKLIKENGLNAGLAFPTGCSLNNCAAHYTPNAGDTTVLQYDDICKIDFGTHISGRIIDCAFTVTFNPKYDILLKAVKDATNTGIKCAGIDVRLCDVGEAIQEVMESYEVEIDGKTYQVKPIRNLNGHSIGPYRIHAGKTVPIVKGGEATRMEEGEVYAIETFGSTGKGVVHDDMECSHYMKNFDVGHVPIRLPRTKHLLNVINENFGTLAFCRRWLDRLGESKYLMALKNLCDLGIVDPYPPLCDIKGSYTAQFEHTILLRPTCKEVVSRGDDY
The experiment in a line: MetAP-2 pharmacodynamic assay in wbc lysates. As to conditions: po, PG-PS arthritis rats, read-out: MetAP-2 in wbc inhibited relative to vehicle-treated group. Type of assay: in vivo. Here is the method:
MetAP-2 pharmacodynamic assay. The MetAP-2 assay measures the amount of uninhibited MetAP-2 in cells or tissues which has not been derivitized by prior treatment with the MetAP-2 inhibitor (Bernier (2004) Proc. Natl. Acad. Sci. USA 101: 10768-10773 and Bernier (2005) J. Cell. Biochem. 95: 1191-1203). Briefly, wbc from animals of each study group were pooled and cell lysates were prepared as previously described (Bernier (2004) Proc. Natl. Acad. Sci. USA 101: 10768-10773 and Bernier (2005) J. Cell. Biochem. 95: 1191-1203). 10 μg to 20 μg of wbc protein was incubated with a biotinylated analog of the MetAP-2 inhibitor which covalently binds to the catalytic site of MetAP-2. The biotinylated MetAP-2-inhibitor complex was captured on a plate with immobilized streptavidin (Pierce), and detected with the MetAP-2 antibody CM33 (0.5 μg/ml), followed by horseradish peroxidase-conjugated goat anti-rabbit IgG secondary antibody. The amount of uninhibited MetAP-2 was determined by measuring the absorption at 450 nm using a Labsystems Multiskan plate spectrophotometer. Human recombinant MetAP-2 (Mediomics), pre-bound to the biotinylated MetAP-2 inhibitor, was used to generate the standard curve. The detection limit of this assay was 0.47 ng MetAP-2 protein/mg wbc protein.
Since the MetAP-2 inhibitor had the ability to inhibit multiple cell types critical for pathogenesis of the bone associated disease, RA, in vitro, it was hypothesized that the observations from the in vitro studies (Example 1) would translate into protection from disease in animals in the PG-PS model of arthritis. The progression of disease in this model follows a biphasic mode, with an early acute, predominantly neutrophil-driven phase which persists to days 6-7, followed by a chronic, T cell dependent phase (evident around day 12), which is characterized by chronic inflammation and erosive synovitis (Palombella (1998) Proc. Natl. Acad. Sci. USA 95:15671-15676). Therapeutic dosing of animals administered the MetAP-2 inhibitor orally (p.o.) at 1, 5 and 10 mg/kg, every other day (qod), or vehicle started at day 15 after the chronic destructive phase of the disease was established and terminated on day 31. […] The amount of uninhibited MetAP-2 in wbc of animals from all treatment groups was measured after conclusion of the study, using the MetAP-2 pharmacodynamic assay (Bernier (2004) Proc. Natl. Acad. Sci. USA 101: 10768-10773 and Bernier (2005) J. Cell. Biochem. 95: 1191-1203). […]

The test system of assay [4] is COMP. The experiment in a line: Serum COMP ELISA in rat PG-PS arthritis model. As to conditions: 1, 5 and 10 mg/kg p.o. qod, after conclusion of the study. Type of assay: in vivo. Here is the method:
ELISAs for cartilage and bone biochemical turnover markers. The amount of COMP in serum was measured with a competitive enzyme immunoassay (MD Biosciences, Inc) according to the manufacturer's instructions. The detection limit of this ELISA was 0.2 U/L. Helical peptide (amino acids 620 to 633) from the α1 chain of bone-specific human CTX-I was measured either in cell culture supernatants of primary human OC precursors cultured as described above, or in urine with a competitive enzyme immunoassay (Quidel Corporation). The detection limit of this ELISA was 8 μg/L. All CTX-I measurements in urine were corrected for urinary creatinine excretion for each sample to account for potential differences in renal clearance rates among the different study groups. Urinary creatinine was measured with a colorimetric assay (Quidel Corporation).
The destruction of articular joints is the radiographic hallmark of bone associated disease. Therefore, the activity of the MetAP-2 inhibitor on these destructive processes was assessed by measuring biochemical turnover markers of cartilage erosion and bone resorption. […] The amount of COMP in serum of animals treated therapeutically with the MetAP-2 inhibitor (1, 5, and 10 mg/kg, p.o., qod), or vehicle was measured after conclusion of the study.

For the compound `CO[C@@H]1[C@H](OC(=O)N[C@@H](C(N)=O)C(C)C)CC[C@]2(CO2)[C@H]1[C@@]1(C)O[C@@H]1CC=C(C)C` [MetAP-2 inhibitor, (1-Carbamoyl-2-methyl-propyl)-carbamic acid-(3R,4S,5S,6R)-5-methoxy-4-[(2R,3R)-2-methyl-3-(3-methyl-but-2-enyl)-oxiranyl]-1-oxa-spiro[2,5]oct-6-yl ester], the “inhibition of proliferation of HUVEC” value in assay [1] is “potently inhibit”. In addition, the “total arthritic score versus vehicle” value in assay [2] (1, 5, 10 mg/kg p.o. qod) is listed as “significantly decreased”. Besides, in assay [2] (1 mg/kg), the Total arthritis score is on record as 7.00 ± 0.58^B, the “Bone Resorption score” value was determined as 2.05 ± 0.2, the Cartilage erosion score is listed as 1.10 ± 0.12^B and the Cell infiltration score is recorded as 1.85 ± 0.15^A. For the same compound, in assay [2] (1 mg/kg), the Pannus formation score was 2.00 ± 0.14^A. In addition, in assay [2] (5 mg/kg), the Total arthritis score is reported as 7.60 ± 0.67^B, the “Bone Resorption score” value is listed as 1.80 ± 0.20^B, the Cartilage erosion score is 1.25 ± 0.18^B and the Cell infiltration score is recorded as 2.15 ± 0.18^A. Besides, the Pannus formation score in assay [2] (5 mg/kg) is reported as 2.40 ± 0.20^A. Further, in assay [2] (10 mg/kg), the Total arthritis score was 5.83 ± 0.71^B, the “Bone Resorption score” value is on record as 2.00 ± 0.16^B, the Cartilage erosion score was 0.72 ± 0.14^B and the Cell infiltration score is recorded as 1.38 ± 0.31^A. Further, the Pannus formation score in assay [2] (10 mg/kg) was 1.72 ± 0.20^A. Besides, in assay [3] (1 mg/kg p.o. qod), the inhibition at 1 mg/kg is ≥ 60%. Moreover, in assay [3] (5 mg/kg p.o. qod), the inhibition at 5 mg/kg was ≥ 95%. Further, the inhibition at 10 mg/kg in assay [3] (10 mg/kg p.o. qod) was ≥ 95%. In assay [4], the “systemic level of COMP in serum” value is recorded as “significant decrease”.
